Test results published in PubChem BioAssay (NCI).
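Dose response: 5 concentrations. Exposure: 48 h. Format: 96-well plates. Endpoint: linear interpolation; highest concentration if not reached. GI50 = concentration required for 50% inhibition of growth. TGI denotes the concentration required for complete inhibition of growth.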

Key:
Experiment in all cases: NCI anticancer screen, dose series, 48 h
786-0 renal = tested on: 786-0 renal
BT-549 breast = tested on: BT-549 breast
HCT-15 colon = tested on: HCT-15 colon
HOP-92 NSCLC = tested on: HOP-92 NSCLC
IGROV1 ovarian = tested on: IGROV1 ovarian
MOLT-4 leukemia = tested on: MOLT-4 leukemia
NCI-H522 lung = tested on: NCI-H522 lung
SK-MEL-2 melanoma = tested on: SK-MEL-2 melanoma
SK-MEL-28 melanoma = tested on: SK-MEL-28 melanoma
SR leukemia = tested on: SR leukemia

Structure (SMILES) | GI50 (786-0 renal) | TGI (786-0 renal) | GI50 (BT-549 breast) | TGI (BT-549 breast) | GI50 (HCT-15 colon) | TGI (HCT-15 colon) | GI50 (HOP-92 NSCLC) | TGI (HOP-92 NSCLC) | GI50 (IGROV1 ovarian) | TGI (IGROV1 ovarian) | GI50 (MOLT-4 leukemia) | TGI (MOLT-4 leukemia) | GI50 (NCI-H522 lung) | TGI (NCI-H522 lung) | GI50 (SK-MEL-2 melanoma) | TGI (SK-MEL-2 melanoma) | GI50 (SK-MEL-28 melanoma) | TGI (SK-MEL-28 melanoma) | GI50 (SR leukemia) | TGI (SR leukemia)
O=P(O)(O)C(O)(Cn1ccnc1)P(=O)(O)O | 19 µM | > 70 µM | > 34.4 µM | > 100 µM | > 100 µM | > 100 µM | > 41.7 µM | > 100 µM | 53.5 µM | > 100 µM | > 100 µM | > 100 µM | > 100 µM | > 100 µM | > 100 µM | > 100 µM | > 62.8 µM | > 100 µM | > 100 µM | > 100 µM
C=CCOc1c(Br)cc(Br)cc1Br | 34.1 µM | > 100 µM | 35.5 µM | > 100 µM | 16.7 µM | > 100 µM | 35.6 µM | > 100 µM | 5.26 µM | 67.1 µM | 14.7 µM | 99.1 µM | 4.68 µM | 30.7 µM | > 100 µM | > 100 µM | 75.5 µM | > 100 µM | 4.84 µM | > 100 µM
Oc1ccc(Cc2ccccc2)c2cccnc12 | 2.04 µM | 6.57 µM | 2.33 µM | 26.7 µM | 0.507 µM | 44.9 µM | 1.02 µM | 39.6 µM | 2.2 µM | 32.8 µM | 1.41 µM | 93.8 µM | 3.69 µM | 76 µM | 12.7 µM | 70.6 µM | 10.3 µM | > 100 µM | 0.673 µM | > 100 µM
CC(C)(C)c1nc2c(o1)C(=Nc1ccc(F)cc1)c1ccccc1C2=O |  | 52.5 µM |  | 12.9 µM |  | 33.8 µM |  | > 97.7 µM |  | > 66.7 µM |  | > 100 µM |  | 20.5 µM |  | 8.03 µM |  | 26 µM |  | > 100 µM
COc1ccc2c(-c3cc4ccccc4o3)cc(=O)oc2c1 |  | 78.6 µM |  | > 100 µM |  | > 100 µM |  | 75.3 µM |  | > 100 µM |  | > 100 µM |  | > 91.8 µM |  | > 100 µM |  | > 100 µM |  | > 100 µM
CNC(=O)c1cn(C[C@H](F)CCc2ccc(NC(=O)Cc3cc(OC4CC(F)(F)C4)cc(C)n3)nn2)nn1 | > 100 µM | > 100 µM | > 100 µM | > 100 µM | > 100 µM | > 100 µM | 23 µM | > 100 µM | > 100 µM | > 100 µM | > 93.5 µM | > 100 µM | 5.18 µM | > 100 µM | > 100 µM | > 100 µM | > 100 µM | > 100 µM | > 81.8 µM | > 100 µM
CCCCCC(C(O)C#N)C(O)(C(F)(F)F)C(F)(F)F (stereo unspecified) |  | > 10 µM |  | > 10 µM |  | > 10 µM |  | > 10 µM |  | > 10 µM |  | > 10 µM |  | > 10 µM |  |  |  | > 10 µM |  | > 10 µM
COc1ccccc1C(=O)c1ccc2ccccc2c1 |  | > 100 µM |  | 52.7 µM |  | > 100 µM |  | 66.5 µM |  | 53 µM |  | 34 µM |  | 21.5 µM |  | 37.5 µM |  | > 100 µM |  | 16.1 µM
NCCN1CCN(c2nccc(-c3ccc4ccccc4c3)n2)CC1 | 1.69 µM | 3.17 µM | 4.89 µM | 18.2 µM | 1.79 µM | 3.54 µM | 1.61 µM | 4.01 µM | 1.97 µM | 4.12 µM | 2.05 µM | 4.44 µM | 1.97 µM | 3.84 µM | 2.21 µM | 4.36 µM | 1.85 µM | 3.42 µM | 1.87 µM | 6.11 µM
Cc1noc(C)c1-c1ccc2[nH]c(=O)n3c2c1OC[C@@H]3c1ccccn1 | 3.94 µM | > 100 µM | 15.6 µM | > 100 µM | 0.653 µM | > 100 µM | 0.323 µM | > 100 µM | 0.965 µM | > 100 µM | 11.5 µM | > 100 µM | 2.64 µM | > 100 µM | > 89.5 µM | > 100 µM | > 25.8 µM | > 100 µM | 0.267 µM | > 100 µM
CC1=C(C)C(=O)O[C@@H]([C@](C)(O)[C@]2(O)CC[C@@]3(O)[C@@H]4C[C@H]5O[C@]56CC=CC(=O)[C@]6(C)[C@H]4CC[C@]23C)C1 | 0.284 µM | 1.96 µM | 0.335 µM | 1.45 µM | 0.152 µM | 1.25 µM | 0.0651 µM | 1.91 µM | 0.283 µM | 2.59 µM | 0.0786 µM | 35.2 µM | 0.1 µM | 0.534 µM | 0.0761 µM | 0.481 µM | 0.233 µM | 1.92 µM | 0.0552 µM | > 100 µM
CN(C)CCNC(=O)Nc1c(C#N)[n+]([O-])c2cc(Cl)c(Cl)cc2[n+]1[O-] | 35.8 µM | > 100 µM | 10.7 µM | 39.8 µM | 41.4 µM | > 100 µM | 18.1 µM | 99 µM |  |  | 3.92 µM | 20.9 µM | 13.1 µM | 35.3 µM | 15.9 µM | 50.6 µM | 34.3 µM | > 100 µM | 13.4 µM | > 100 µM
CCOC(=O)[C@@H](C)C[C@H](Cc1ccccc1)NC(=O)c1csc([C@@H](C[C@H](C(C)C)N(C)C(=O)[C@@H](NC(=O)[C@H]2CCCCN2C)C(C)(C)C)OC(C)=O)n1 | < 0.00167 µM | > 6.61 µM | < 0.00167 µM | 0.00961 µM | < 0.00167 µM | > 16.7 µM | < 0.00167 µM | 1.44 µM | < 0.00167 µM | > 16.7 µM | 0.00217 µM | > 16.7 µM | < 0.00167 µM | 0.0644 µM | < 0.00167 µM | > 16.7 µM |  |  | < 0.00167 µM | > 16.7 µM
NC(N)=N/N=C/c1c(-c2ccccn2)nc2sc(Cl)cn12 | 8.45 µM | 16.4 µM | 8.25 µM | 15.2 µM | 8.15 µM | 14.9 µM | 10 µM | 21.3 µM | 6.21 µM | 13.7 µM |  |  | 7.86 µM | 15.3 µM | 7.93 µM | 15.1 µM |  |  | 0.845 µM | 3.05 µM
